Results reported in US6737383B1, “Herbicidal oxadiazolidines” (priority 1999, dated 2004).

What was measured:
[1] = tested on: corn; assay: Test B pre/postemergence corn; format: in vivo, Zea mays
Outline: (§1)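 Herbicidal effect was estimated by eye on a ten-point control scale after plants spent twelve to sixteen days in a greenhouse following soil or foliar treatment. Foliar sprays targeted plants at one to four leaves; all doses were formulated in a non-phytotoxic solvent with surfactant.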

[2] = tested on: crabgrass; assay: Test B pre/postemergence crabgrass; format: in vivo, Digitaria sanguinalis
Outline: as §1

[3] = tested on: morningglory; assay: Test B pre/postemergence morningglory; format: in vivo, Ipomoea hederacea
Outline: as §1

[4] = tested on: wild oat; assay: Test B pre/postemergence wild oat; format: in vivo, Avena fatua
Outline: as §1

[5] = tested on: purple nutsedge; assay: Test B pre/postemergence purple nutsedge; format: in vivo, Cyperus rotundus
Outline: as §1

[6] = tested on: giant foxtail; assay: Test B pre/postemergence giant foxtail; format: in vivo, Setaria faberii
Outline: as §1

[7] = tested on: bedstraw; assay: Test B pre/postemergence bedstraw; format: in vivo, Galium aparine
Outline: as §1

[8] = tested on: velvetleaf; assay: Test B pre/postemergence velvetleaf; format: in vivo, Abutilon theophrasti
Outline: as §1

[9] = tested on: smallflower flatsedge; assay: Test B flood test smallflower flatsedge; format: in vivo, Cyperus difformis; settings: Pre-emergence
Outline: (§2)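 Flood test on plants grown to the 2-leaf stage; treated plants kept in greenhouse twelve to sixteen days, then visually rated against controls on a 0 (no effect) to 10 (complete control) scale.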

[10] = tested on: rice; assay: Test B flood test rice; format: in vivo, Oryza sativa; settings: Pre-emergence
Outline: as §2

[11] = tested on: blackgrass; assay: Test B pre/postemergence blackgrass; format: in vivo, Alopecurus myosuroides
Outline: as §1

[12] = tested on: soybean; assay: Test B pre/postemergence soybean; format: in vivo, Glycine max
Outline: as §1

[13] = tested on: wheat; assay: Test B pre/postemergence wheat; format: in vivo, Triticum aestivum
Outline: as §1

[14] = tested on: duck salad; assay: Test B flood test duck salad; format: in vivo, Heteranthera limosa; settings: Pre-emergence
Outline: as §2

[15] = tested on: pigweed; assay: Test B pre/postemergence pigweed; format: in vivo, Amaranthus retroflexus
Outline: as §1

[16] = tested on: surinam grass; assay: Test B pre/postemergence surinam grass; format: in vivo, Brachiaria decumbens
Outline: as §1

[17] = Postemergence, Rate 125 g/ha, scale 0 to 10, 0 is no effect, 10 is complete control
[18] = Preemergence, Rate 62 g/ha, scale of 0 to 10 where 0 is no effect and 10 is complete control
[19] = Preemergence, Rate 250 g/ha, scale of 0 to 10 where 0 is no effect and 10 is complete control
[20] = Preemergence, Rate 500 g/ha, scale of 0 to 10 where 0 is no effect and 10 is complete control
[21] = Rate 62 g/ha, Postemergence, scale 0 to 10 (0 no effect, 10 complete control)
[22] = Rate 500 g/ha, Postemergence, scale 0 to 10, 0 no effect, 10 complete control
[23] = Rate 250 g/ha, Postemergence, scale of 0 to 10 where 0 is no effect and 10 is complete control
[24] = Rate 1000 g/ha, scale 0 to 10 (0 no effect, 10 complete control)
[25] = Rate 125 g/ha, flood test species, scale 0 to 10 where 0 is no effect and 10 is complete control
[26] = Rate 250 g/ha, flood-test species, scale 0 to 10, 0 is no effect, 10 is complete control
[27] = Rate 500 g/ha, flood test species, scale 0 to 10 (0 no effect, 10 complete control)

CC(C)N(C(=O)n1oc(=O)n(-c2ccc3ccccc3c2)c1=O)c1ccc(Cl)cc1 [Compound 333]
Plant response rating, Corn [1, 17]: 0 | Corn plant response rating [1, 18]: 0 | Corn plant response rating (0 to 10 scale) ([1]; Preemergence, Rate 125 g/ha): 0 | Corn plant response rating [1, 19]: 0 | Corn plant response rating [1, 20]: 0 | Corn plant response rating [1, 21]: 0 | Plant response rating, Corn [1, 22]: 0 | Plant response rating, Crabgrass [2, 17]: 0 | Crabgrass plant response rating [2, 18]: 0 | Crabgrass plant response rating (0 to 10 scale) ([2]; Preemergence, Rate 125 g/ha): 0 | Crabgrass plant response rating [2, 19]: 0 | Crabgrass plant response rating [2, 20]: 3 | Crabgrass plant response rating [2, 21]: 0 | Plant response rating, Crabgrass [2, 22]: 0 | Plant response rating, Morningglory [3, 17]: 0 | Morningglory plant response rating [3, 18]: 0 | Morningglory plant response rating (0 to 10 scale) ([3]; Preemergence, Rate 125 g/ha): 0 | Morningglory plant response rating [3, 19]: 0 | Morningglory plant response rating [3, 20]: 0 | Morningglory plant response rating [3, 21]: 0 | Plant response rating, Morningglory [3, 22]: 0 | Plant response rating, Wild oats [4, 17]: 0 | Wild oats plant response rating [4, 18]: 0 | Wild oats plant response rating (0 to 10 scale) ([4]; Preemergence, Rate 125 g/ha): 0 | Wild oats plant response rating [4, 19]: 0 | Wild oats plant response rating [4, 20]: 0 | Wild oats plant response rating [4, 21]: 0 | Plant response rating, Wild oats [4, 22]: 0 | Plant response rating, Nutsedge [5, 17]: 0 | Nutsedge plant response rating [5, 18]: 0 | Nutsedge plant response rating (0 to 10 scale) ([5]; Preemergence, Rate 125 g/ha): 0 | Nutsedge plant response rating [5, 19]: 0 | Nutsedge plant response rating [5, 20]: 0 | Nutsedge plant response rating [5, 21]: 0 | Plant response rating, Nutsedge [5, 22]: 0 | Plant response rating, Giant foxtail [6, 17]: 0 | Giant foxtail plant response rating [6, 18]: 0 | Giant foxtail plant response rating (0 to 10 scale) ([6]; Preemergence, Rate 125 g/ha): 0 | Giant foxtail plant response rating [6, 19]: 0 | Giant foxtail plant response rating [6, 20]: 2 | Giant foxtail plant response rating [6, 21]: 0 | Plant response rating, Giant foxtail [6, 22]: 0 | Plant response rating, Bedstraw [7, 17]: 0 | Bedstraw plant response rating [7, 18]: 0 | Bedstraw plant response rating (0 to 10 scale) ([7]; Preemergence, Rate 125 g/ha): 0 | Bedstraw plant response rating [7, 19]: 0 | Bedstraw plant response rating [7, 20]: 0 | Bedstraw plant response rating [7, 21]: 0 | Plant response rating, Bedstraw [7, 23]: 0 | Plant response rating, Bedstraw [7, 22]: 0 | Plant response rating, Velvetleaf [8, 17]: 0 | Velvetleaf plant response rating [8, 18]: 0 | Velvetleaf plant response rating (0 to 10 scale) ([8]; Preemergence, Rate 125 g/ha): 0 | Velvetleaf plant response rating [8, 19]: 0 | Velvetleaf plant response rating [8, 20]: 0 | Velvetleaf plant response rating [8, 21]: 0 | Plant response rating, Velvetleaf [8, 22]: 0 | S. Flatsedge plant response rating [9, 24]: 0 | S. Flatsedge plant response rating [9, 25]: 0 | S. Flatsedge plant response rating [9, 26]: 0 | S. Flatsedge plant response rating [9, 27]: 0 | Rice plant response rating [10, 24]: 0 | Rice plant response rating [10, 25]: 0 | Rice plant response rating [10, 26]: 0 | Rice plant response rating [10, 27]: 0 | Plant response rating, Blackgrass [11, 17]: 0 | Blackgrass plant response rating [11, 18]: 0 | Blackgrass plant response rating (0 to 10 scale) ([11]; Preemergence, Rate 125 g/ha): 0 | Blackgrass plant response rating [11, 19]: 0 | Blackgrass plant response rating [11, 20]: 0 | Blackgrass plant response rating [11, 21]: 0 | Plant response rating, Blackgrass [11, 23]: 0 | Plant response rating, Blackgrass [11, 22]: 0 | Plant response rating, Soybean [12, 17]: 2 | Soybean plant response rating [12, 18]: 0 | Soybean plant response rating (0 to 10 scale) ([12]; Preemergence, Rate 125 g/ha): 0 | Soybean plant response rating [12, 19]: 0 | Soybean plant response rating [12, 20]: 0 | Soybean plant response rating [12, 21]: 2 | Plant response rating, Soybean [12, 22]: 4 | Plant response rating, Wheat [13, 17]: 0 | Wheat plant response rating [13, 18]: 0 | Wheat plant response rating (0 to 10 scale) ([13]; Preemergence, Rate 125 g/ha): 0 | Wheat plant response rating [13, 19]: 0 | Wheat plant response rating [13, 20]: 0 | Wheat plant response rating [13, 21]: 0 | Plant response rating, Wheat [13, 22]: 0 | Ducksalad plant response rating [14, 24]: 0 | Ducksalad plant response rating [14, 25]: 0 | Ducksalad plant response rating [14, 26]: 0 | Ducksalad plant response rating [14, 27]: 0 | Plant response rating, Redroot pigweed [15, 17]: 0 | Redroot pigweed plant response rating [15, 18]: 0 | Redroot pigweed plant response rating (0 to 10 scale) ([15]; Preemergence, Rate 125 g/ha): 0 | Redroot pigweed plant response rating [15, 19]: 0 | Redroot pigweed plant response rating [15, 20]: 0 | Redroot pigweed plant response rating [15, 21]: 0 | Plant response rating, Redroot pigweed [15, 22]: 0 | Plant response rating, B. signalgrass [16, 17]: 0 | B. signalgrass plant response rating [16, 18]: 0 | B. signalgrass plant response rating (0 to 10 scale, 0 is no effect, 10 is complete control) ([16]; Preemergence, Rate 125 g/ha): 0 | B. signalgrass plant response rating [16, 19]: 0 | B. signalgrass plant response rating [16, 20]: 0 | B. signalgrass plant response rating [16, 21]: 0 | Plant response rating, B. signalgrass [16, 23]: 0 | Plant response rating, B. signalgrass [16, 22]: 0
